Assays:
P. multocida cells = experiment: SEM and TEM morphology of bacterial cells; format: cell-based, Pasteurella multocida; settings: combined action of melatonin and citric acid; FIG. 18
Method: The effect of melatonin on the morphologies of P. multocida cells were evaluated employing SEM and TEM. 1 mL of fresh Pasteurella multocida (1×10^9 CFU) at the logarithmic growth stage was added into 100 mL of fresh Martin liquid medium containing different concentrations (1, 2 or 3 mg/mL) of MT. MT-free DMSO was used as a solvent control group and ampicillin (100 μg/mL) was used as a positive control group. All cultures were shaken at 220 rpm in a shaker at 37° C. for 8 hours, 12 hours or 16 hours. The bacterial samples were centrifuged at 3000 r/min for 10 minutes, the supernatant was removed, and cells were collected and washed with PBS for 3 times. Then the cells were fixed with a fixation solution of 2.5% fresh glutaraldehyde for 6 hours, and washed with PBS for 3 times, each time for 10 minutes. Subsequently, the SEM samples were dehydrated with 50%, 70%, 80% and 90% ethanol for 15 minutes respectively, and then dehydrated with 100% ethanol for 3 times, each time for 30 minutes. Ethanol was removed by washing with tert-butyl alcohol for three times, each time for 30 minutes. The samples were dried by a freeze dryer and plated with 10 nm of gold film by an ion sputtering device. The samples were examined using a field scanning electron microscope (FESEM, Hitch SU8010).
The TEM samples were fixed with 1%-2% […] for 2-3 hours, and washed with […] 3 times, each time for 10 minutes. The samples were dehydrated with 30%, 50%, 70%, 80% and 90% ethanol for 20 minutes respectively, and then dehydrated with 100% ethanol 3 times, each time for 30 minutes. Ethanol was replaced with acetone three times, each time for 30 minutes. The bacterial samples were placed on a copper grid with a formvar membrane, and negatively stained with phosphotungstic acid (2% v/v, pH=6.7). The surface area of the sample was less than 0.2 mm×0.2 mm, and slice thickness was between 50 and 90 nm (Lycra UC7). The samples were detected by TEM (Hitachi H-7650) at 80 kV, and photographs of the samples were taken by a Gatan832 CCD camera (Gatan). […]

Pasteurella multocida [1] = experiment: Growth curve with exogenous citric acid; format: cell-based; settings: citric acid 1, 2, 3 mg/mL alone; FIG. 16
Method: Here, 1 mL of Pasteurella multocida (1×10^9 CFU) at the logarithmic growth stage was added into 100 mL of fresh and sterile Martin broth medium containing different concentrations of citric acid (CA-1 mg/ml, CA-2 mg/mL, and CA-3 mg/mL), and citric acid-free DMSO was used as a solvent control group. The bacterial cells were cultured in a constant-temperature shaker at 37° C. and 220 rpm for […]. Then, the growth curve of the cells was determined. Each experiment was repeated for three times, and each group was set in triplicate.

Pasteurella multocida [2] = experiment: Growth curve with melatonin and citric acid; format: cell-based; settings: MT 1-3 mg/mL with CA 1-3 mg/mL, 12 h; FIG. 17
Method: 1 mL of Pasteurella multocida (1×10^9 CFU) at the logarithmic growth stage was also added into 100 mL of fresh and sterile Martin broth medium containing different concentrations of melatonin and citric acid (CA) (MT-1 mg/mL, MT-1 mg/mL-CA-1 mg/mL, MT-1 mg/mL-CA-2 mg/mL, MT-1 mg/mL-CA-3 mg/mL; MT-2 mg/mL, MT-2 mg/mL-CA-1 mg/mL, MT-2 mg/mL-CA-2 mg/mL, MT-2 mg/mL-CA-3 mg/mL; MT-3 mg/mL, MT-3mg/mL-CA-1 mg/mL, MT-3 mg/mL-CA-2 mg/mL, and MT-3 mg/mL-CA-3 mg/mL). DMSO not containing melatonin and citric acid was used as a solvent control group, and the bacterial cells were cultured in a constant-temperature shaker at 37° C. and 220 rpm for 12 h. Then the growth curve of the cells were determined. Each experiment was carried out for three times, and each group was set in triplicate.

Pasteurella multocida [3] = experiment: Leakage of cell contents with melatonin and citric acid; format: cell-based; settings: MT with CA (1/1, 2/2, 3/3 mg/mL), 12 h
Method: Additionally, 1 mL of Pasteurella multocida (1×10^9 CFU) at the logarithmic growth stage was added into 100 mL of fresh and sterile Martin broth medium containing different concentrations of melatonin and citric acid (CA) (MT-1 mg/mL, MT-2 mg/mL, MT-3 mg/mL, CA-1 mg/mL, CA-2 mg/mL, CA-3 mg/mL, MT-1 mg/mL-CA-1 mg/mL, MT-2 mg/mL-CA-2 mg/mL, MT-3 mg/mL-CA-3 mg/mL). The melatonin-free DMSO was used as a solvent control group, and the bacterial cells were cultured in a shaker at 37° C. and 220 rpm for 12 h. Thereafter, 1 mL of the bacterial solution was taken and centrifuged at 3000 r/min for 10 minutes, and the supernatant and precipitated cells were collected, respectively. At the same time, 2.5 mmol/mL of […] (ONPG) and Pasteurella multocida were added to detect ([…]. The concentrations of protein, alkaline phosphatase (AKP) and reducing sugar in the supernatant were determined sequentially using respective determination kits. The β-galactosidase in the supernatant was determined by measuring the optical density at 420 nm (OD420). Each experiment was carried out for three times, and each group was set in triplicate.

Klebsiella pneumoniae = experiment: Growth curve with melatonin and citric acid; format: cell-based; settings: MT 1-3 mg/mL with CA 1-3 mg/mL, FIG. 27
Method: (§1) In additional studies, 1 mL of Klebsiella pneumoniae, Pseudomonas aeruginosa, Diplococcus pneumoniae and Streptococcus pneumoniae at the logarithmic growth stage was added into 100 mL of fresh and sterile Martin broth medium containing different concentrations of melatonin and citric acid (CA) (MT-1 mg/mL, MT-1 mg/mL-CA-1 mg/mL, MT-1 mg/mL-CA-2 mg/mL, MT-1 mg/mL-CA-3 mg/mL; MT-2 mg/mL, MT-2 mg/mL-CA-1 mg/mL, MT-2 mg/mL-CA-2 mg/mL, MT-2 mg/mL-CA-3 mg/mL; MT-3 mg/mL, MT-3 mg/mL-CA-1 mg/mL, MT-3 mg/mL-CA-2 mg/mL MT-3 mg/mL-CA-3 mg/mL).

Pseudomonas aeruginosa = experiment: Growth curve with melatonin and citric acid; format: cell-based; settings: MT 1-3 mg/mL with CA 1-3 mg/mL, FIG. 27
Method: as §1

Compound: O=C(O)CC(O)(CC(=O)O)C(=O)O [citric acid]
- cytoplasmic vacuolization and irregular cell membrane caused by melatonin (TEM) (P. multocida cells): disappeared
- growth of Pasteurella multocida (Pasteurella multocida [1]): promotes the growth
- effect of added citric acid on antibacterial activity of melatonin (Pasteurella multocida [2]): reduces the antibacterial activity of melatonin
- melatonin-induced release of reducing sugar (Pasteurella multocida [3]; FIG. 19): significantly reduces
- melatonin-induced release of proteins (Pasteurella multocida [3]; FIG. 20): significantly reduces
- melatonin-induced release of AKP enzymes (alkaline phosphatase) (Pasteurella multocida [3]; FIG. 21): significantly reduces
- melatonin-induced release of β-galactosidase (Pasteurella multocida [3]; FIG. 22): significantly reduces
- melatonin-induced activity (release) of ATPase (Pasteurella multocida [3]; FIG. 23): significantly reduces
- effect of exogenous citric acid on bacteriostatic effect of melatonin (Klebsiella pneumoniae): can reduce the bacteriostatic effect of melatonin
- effect of exogenous citric acid on bacteriostatic effect of melatonin (Pseudomonas aeruginosa): can reduce the bacteriostatic effect of melatonin

From patent US20210353595A1, “USE OF MELATONIN IN PREPARATION OF MEDICAMENT FOR INHIBITING AND/OR KILLING BACTERIUM” (priority 2020, published 2021)
